# Assays:
# Diplodia maydis (Dm) = test: Growth inhibition assay of fungal pathogens, Dm; format: cell-based; details: Stenocarpella maydis; 48 hours; read-out: Concentration at 90% Inhibition, Dm
# In short: (§1)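 Spores in 17% V8 liquid medium were exposed to compound at final 50, 10 and 2 ppm or 2, 0.4 and 0.08 ppm with 2% DMSO. After 48 h, OD600 (blank-subtracted) and visual ratings were compared with the 2% DMSO control to give percent growth inhibition.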
# [1] = tested on: Collectotrichum graminicola (Cg); test: Growth inhibition assay of fungal pathogens, Cg; format: cell-based; details: 48 hours; read-out: Concentration at 90% Inhibition, Cg
# In short: as §1
# Botrtyis cinerea (Bc) = test: Growth inhibition assay of fungal pathogens, Bc; format: cell-based; details: 48 hours; read-out: Concentration at 90% Inhibition, Bc
# In short: as §1
# Septoria tritici (St) = test: Growth inhibition assay of fungal pathogens, St; format: cell-based; details: Zymoseptoria tritici; 48 hours; read-out: Concentration at 90% Inhibition, St
# In short: as §1
# [2] = tested on: Blumeria graminis f sp. hordei; test: Foliar protection test, barley powdery mildew control; format: in vivo, Blumeria graminis f sp. hordei on Hordeum vulgare cv. Perry; details: 168 h, compound concentration 50 ppm, foliar spray, evaluated 7 days after inoculation, read-out: Barley Powdery Mildew Control at 50 ppm
# In short: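 Barley cv. Perry at first true leaf (6 days) sprayed to wetness on both leaf sides with compound in 5% acetone/0.005% Tween 80, typically at 200, 100, 50, 10 or 2 ppm. Inoculated 24 h later by shaking spores from colonized plants; kept at 20-22 °C, 70% RH. Mildew colonization scored 7 days later as percent control.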
# [3] = compound concentration 10 ppm, foliar spray, evaluated 7 days after inoculation
# C. albicans ATCC 90028 = test: Anti-Fungal Activity Assay (broth microtiter MIC), C. albicans; format: cell-based, Candida albicans; details: Candida albicans, ATCC90028, 48 h, 3 replicates; MIC recorded at 48 h; read-out: MIC C. albicans ATCC 90028
# In short: (§2)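 MIC by visual comparison with growth control, read at 48 h (soraphen also at 24 h). Inoculum: colonies from overnight Sabouraud dextrose agar plates at 35° C, suspended in RPMI 1640+MOPS, density from standard curves. Microtiter broth dilution per CLSI M27-A3; compounds from 1 mg/mL DMSO stocks.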
# C. krusei ATCC 6258 = test: Anti-Fungal Activity Assay (broth microtiter MIC), C. krusei; format: cell-based, Candida krusei; details: Pichia kudriavzevii, ATCC6258, 48 h, 3 replicates; MIC recorded at 48 h; read-out: MIC C. krusei ATCC 6258
# In short: as §2
# [4] = tested on: Phytophthora capsici (Pc); test: Growth inhibition assay of fungal pathogens, Pc; format: cell-based; details: 48 hours, read-out: Concentration at 90% Inhibition, Pc
# In short: as §1
# [5] = tested on: Fusarium moniliforme (Fm); test: Growth inhibition assay of fungal pathogens, Fm; format: cell-based; details: Fusarium verticillioides; 48 hours; read-out: Concentration at 90% Inhibition, Fm
# In short: as §1
# Fungal ACC2 = Fungal ACC2 (UniProt Q00955); details: read-out: Fungal ACC2 (IC50, in vitro ACC2 inhibition)
# [6] = tested on: C. parapsilosis ATCC 22019; test: Anti-Fungal Activity Assay (broth microtiter MIC), C. parapsilosis; format: cell-based, Candida parapsilosis; details: Lodderomyces parapsilosis, ATCC22019, 48 h, 3 replicates; MIC recorded at 48 h; read-out: MIC C. parapsilosis ATCC 22019
# In short: as §2
# Rhizoctonia solani (Rs) = test: Growth inhibition assay of fungal pathogens, Rs; format: cell-based; details: 48 hours, read-out: Concentration at 90% Inhibition, Rs
# Human ACC2 = Human ACC2 (Homo sapiens, UniProt O00763); test: In vitro ACC2 inhibition assay (ADP-Glo), human ACC2; format: biochemical; details: 5 nM ACC2, 20 μM ATP, 20 μM acetyl-CoA
# [7] = tested on: Fusarium virguliforme (Fv); test: Growth inhibition assay of fungal pathogens, Fv; format: cell-based; details: 48 hours, read-out: Concentration at 90% Inhibition, Fv
# In short: as §1
# Chain of Human ACC2 (O00763 whole entry): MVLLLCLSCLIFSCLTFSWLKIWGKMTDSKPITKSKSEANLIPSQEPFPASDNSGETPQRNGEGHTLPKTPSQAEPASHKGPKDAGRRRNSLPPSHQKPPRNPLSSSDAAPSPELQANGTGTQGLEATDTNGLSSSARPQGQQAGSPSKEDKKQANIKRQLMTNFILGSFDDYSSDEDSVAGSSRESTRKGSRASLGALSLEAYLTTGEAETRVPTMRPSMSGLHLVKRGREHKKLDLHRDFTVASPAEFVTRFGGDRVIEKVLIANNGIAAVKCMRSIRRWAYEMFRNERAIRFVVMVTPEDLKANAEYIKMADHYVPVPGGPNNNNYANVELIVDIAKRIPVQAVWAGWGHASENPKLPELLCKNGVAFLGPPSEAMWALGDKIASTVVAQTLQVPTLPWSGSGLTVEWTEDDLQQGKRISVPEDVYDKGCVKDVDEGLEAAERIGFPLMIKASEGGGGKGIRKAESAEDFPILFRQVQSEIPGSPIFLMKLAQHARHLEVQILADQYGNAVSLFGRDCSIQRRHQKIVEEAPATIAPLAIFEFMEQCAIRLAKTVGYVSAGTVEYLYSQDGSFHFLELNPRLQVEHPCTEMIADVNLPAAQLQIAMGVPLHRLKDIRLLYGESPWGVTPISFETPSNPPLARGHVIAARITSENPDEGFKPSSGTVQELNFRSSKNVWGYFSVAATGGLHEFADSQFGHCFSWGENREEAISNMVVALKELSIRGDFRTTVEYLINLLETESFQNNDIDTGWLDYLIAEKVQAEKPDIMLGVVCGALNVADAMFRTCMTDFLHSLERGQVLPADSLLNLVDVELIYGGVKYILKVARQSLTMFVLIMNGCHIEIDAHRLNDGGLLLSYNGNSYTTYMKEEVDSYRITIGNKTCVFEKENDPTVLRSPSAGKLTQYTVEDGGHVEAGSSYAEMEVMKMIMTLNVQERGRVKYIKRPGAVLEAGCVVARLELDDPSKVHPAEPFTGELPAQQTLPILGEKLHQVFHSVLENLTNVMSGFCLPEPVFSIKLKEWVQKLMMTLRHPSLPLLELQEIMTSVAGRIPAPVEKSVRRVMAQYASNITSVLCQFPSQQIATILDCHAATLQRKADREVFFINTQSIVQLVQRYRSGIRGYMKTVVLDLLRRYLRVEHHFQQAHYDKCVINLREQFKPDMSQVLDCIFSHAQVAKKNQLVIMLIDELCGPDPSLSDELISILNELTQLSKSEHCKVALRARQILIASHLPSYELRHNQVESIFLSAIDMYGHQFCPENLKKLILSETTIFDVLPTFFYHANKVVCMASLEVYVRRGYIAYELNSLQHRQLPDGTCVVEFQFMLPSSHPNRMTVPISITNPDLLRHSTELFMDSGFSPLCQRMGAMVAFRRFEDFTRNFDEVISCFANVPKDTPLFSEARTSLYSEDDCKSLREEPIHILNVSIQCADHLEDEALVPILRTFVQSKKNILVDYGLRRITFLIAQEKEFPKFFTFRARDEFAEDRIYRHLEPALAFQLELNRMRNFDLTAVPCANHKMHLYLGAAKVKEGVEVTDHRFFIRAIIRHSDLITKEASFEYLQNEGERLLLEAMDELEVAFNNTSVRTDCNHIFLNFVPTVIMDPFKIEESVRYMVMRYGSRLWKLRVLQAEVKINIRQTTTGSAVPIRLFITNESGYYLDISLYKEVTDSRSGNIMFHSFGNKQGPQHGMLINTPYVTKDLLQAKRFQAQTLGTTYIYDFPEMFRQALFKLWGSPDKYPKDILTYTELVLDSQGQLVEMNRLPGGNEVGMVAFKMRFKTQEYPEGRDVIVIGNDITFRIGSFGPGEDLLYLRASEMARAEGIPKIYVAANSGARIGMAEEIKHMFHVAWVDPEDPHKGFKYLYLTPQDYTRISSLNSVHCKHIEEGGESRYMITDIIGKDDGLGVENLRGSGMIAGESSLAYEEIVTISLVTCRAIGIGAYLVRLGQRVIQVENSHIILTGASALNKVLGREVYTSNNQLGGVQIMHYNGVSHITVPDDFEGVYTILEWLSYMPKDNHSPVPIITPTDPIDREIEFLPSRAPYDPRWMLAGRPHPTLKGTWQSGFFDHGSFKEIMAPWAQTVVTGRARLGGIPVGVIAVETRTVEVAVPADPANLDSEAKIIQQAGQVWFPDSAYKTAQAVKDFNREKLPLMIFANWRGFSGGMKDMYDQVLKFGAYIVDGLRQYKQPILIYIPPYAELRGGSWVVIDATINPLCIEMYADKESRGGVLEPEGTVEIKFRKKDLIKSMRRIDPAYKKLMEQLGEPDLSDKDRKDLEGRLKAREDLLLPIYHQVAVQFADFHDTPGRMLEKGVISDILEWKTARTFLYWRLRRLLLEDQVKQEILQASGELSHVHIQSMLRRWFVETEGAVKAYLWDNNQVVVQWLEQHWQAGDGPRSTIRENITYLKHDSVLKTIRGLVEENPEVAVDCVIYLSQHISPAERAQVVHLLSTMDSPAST
# Chain of Fungal ACC2 (Q00955 whole entry): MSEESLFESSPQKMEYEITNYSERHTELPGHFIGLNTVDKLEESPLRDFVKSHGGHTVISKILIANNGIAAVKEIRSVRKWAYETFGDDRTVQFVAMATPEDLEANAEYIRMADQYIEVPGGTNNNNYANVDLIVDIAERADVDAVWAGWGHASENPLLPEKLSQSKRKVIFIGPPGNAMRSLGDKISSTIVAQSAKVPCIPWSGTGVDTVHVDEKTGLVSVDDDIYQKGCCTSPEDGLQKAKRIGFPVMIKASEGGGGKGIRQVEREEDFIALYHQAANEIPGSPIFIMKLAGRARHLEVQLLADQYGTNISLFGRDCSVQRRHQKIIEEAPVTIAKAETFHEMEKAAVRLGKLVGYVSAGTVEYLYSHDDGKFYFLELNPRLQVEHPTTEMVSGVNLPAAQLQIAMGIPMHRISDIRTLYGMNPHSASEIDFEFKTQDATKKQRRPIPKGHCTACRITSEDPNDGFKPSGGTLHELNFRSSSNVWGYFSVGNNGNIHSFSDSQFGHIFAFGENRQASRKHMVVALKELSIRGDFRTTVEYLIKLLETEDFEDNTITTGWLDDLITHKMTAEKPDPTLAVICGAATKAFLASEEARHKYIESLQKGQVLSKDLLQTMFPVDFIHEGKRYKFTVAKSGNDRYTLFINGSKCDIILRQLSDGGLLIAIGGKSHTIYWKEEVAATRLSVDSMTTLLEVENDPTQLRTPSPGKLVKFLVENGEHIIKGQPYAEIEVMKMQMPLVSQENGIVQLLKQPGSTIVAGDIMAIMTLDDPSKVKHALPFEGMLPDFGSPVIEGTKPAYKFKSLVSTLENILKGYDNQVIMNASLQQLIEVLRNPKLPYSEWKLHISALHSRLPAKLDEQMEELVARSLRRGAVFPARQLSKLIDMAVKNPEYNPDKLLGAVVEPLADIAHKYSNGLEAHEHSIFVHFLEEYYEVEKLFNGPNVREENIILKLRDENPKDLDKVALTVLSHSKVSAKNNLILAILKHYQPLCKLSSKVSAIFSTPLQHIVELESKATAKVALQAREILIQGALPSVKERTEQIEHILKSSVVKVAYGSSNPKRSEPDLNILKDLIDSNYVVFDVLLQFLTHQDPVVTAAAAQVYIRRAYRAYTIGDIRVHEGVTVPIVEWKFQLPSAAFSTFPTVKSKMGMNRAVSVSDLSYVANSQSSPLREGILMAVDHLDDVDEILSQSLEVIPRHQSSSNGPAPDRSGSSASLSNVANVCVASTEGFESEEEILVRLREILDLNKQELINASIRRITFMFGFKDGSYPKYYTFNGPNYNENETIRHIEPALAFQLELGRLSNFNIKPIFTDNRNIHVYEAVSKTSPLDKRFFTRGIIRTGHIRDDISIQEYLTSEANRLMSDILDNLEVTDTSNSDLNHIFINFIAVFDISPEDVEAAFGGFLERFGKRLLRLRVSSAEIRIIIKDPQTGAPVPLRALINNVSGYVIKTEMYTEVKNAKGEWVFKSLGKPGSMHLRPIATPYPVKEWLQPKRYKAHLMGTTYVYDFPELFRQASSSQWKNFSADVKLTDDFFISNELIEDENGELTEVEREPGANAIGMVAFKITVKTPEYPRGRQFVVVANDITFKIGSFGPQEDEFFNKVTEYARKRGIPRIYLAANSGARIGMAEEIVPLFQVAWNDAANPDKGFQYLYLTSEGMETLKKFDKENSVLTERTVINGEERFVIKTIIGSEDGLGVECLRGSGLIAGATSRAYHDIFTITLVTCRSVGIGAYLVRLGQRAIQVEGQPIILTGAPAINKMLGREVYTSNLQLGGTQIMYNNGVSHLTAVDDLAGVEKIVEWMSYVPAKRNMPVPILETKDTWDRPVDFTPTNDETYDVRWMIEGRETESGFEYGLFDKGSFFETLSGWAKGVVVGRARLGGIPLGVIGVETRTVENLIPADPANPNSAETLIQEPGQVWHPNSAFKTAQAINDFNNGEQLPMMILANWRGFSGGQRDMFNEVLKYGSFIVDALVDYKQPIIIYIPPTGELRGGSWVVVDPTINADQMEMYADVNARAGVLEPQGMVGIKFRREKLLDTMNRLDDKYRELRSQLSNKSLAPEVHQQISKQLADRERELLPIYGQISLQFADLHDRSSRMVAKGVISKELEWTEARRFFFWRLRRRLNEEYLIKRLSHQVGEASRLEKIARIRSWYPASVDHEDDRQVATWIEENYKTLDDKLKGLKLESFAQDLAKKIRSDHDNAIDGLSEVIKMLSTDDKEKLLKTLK
structure (smiles),measurement,setting,value
"COc1ccc(F)cc1[C@H](Cn1c(=O)n([C@@H]2CCCNC2=O)c(=O)c2c(C)c(-n3nccn3)sc21)OCCC#N [Compound I-111, 3-((R)-1-(5-fluoro-2-methoxyphenyl)-2-(5-methyl-2,4-dioxo-3-((R)-2-oxopiperidin-3-yl)-6-(2H-1,2,3-triazol-2-yl)-3,4-dihydrothieno[2,3-d]pyrimidin-1(2H)-yl)ethoxy)propanenitrile]",IC90,Diplodia maydis (Dm),10 µg/mL
same,IC90,[1],10 µg/mL
same,IC90,Botrtyis cinerea (Bc),2 µg/mL
same,IC90,Septoria tritici (St),> 50 µg/mL
same,pest or weed control at 50 ppm,[2],50 to 69%
same,Barley Powdery Mildew Control at 10 ppm,[3],C (provided a compound having from 25 to 49% control of barley powdery mildew)
same,MIC,C. albicans ATCC 90028,2.1 to 4 µg/mL
same,MIC,C. krusei ATCC 6258,2.1 to 4 µg/mL
same,IC90,[4],> 50 µg/mL
same,IC90,[5],2 µg/mL
same,IC50,Fungal ACC2,0.7 to 2 nM
same,MIC,[6],2.1 to 4 µg/mL
same,IC90,Rhizoctonia solani (Rs),2 µg/mL
same,IC50,Human ACC2,2 to 10 nM
same,IC90,[7],10 µg/mL

# — patent US20190330224A1, “ACC INHIBITORS AND USES THEREOF” (Gilead Apollo, LLC, priority 2015, published 2019)
